Data from patent US7138361B2, “Herbicidal heterocycles” (E. I. du Pont de Nemours and Company, priority 2000, dated 2006).

Experiments:
Format in all cases: in vivo
[1] = tested on: Surinam grass (Brachiaria decumbens); test: Test C postemergence
Excerpt: (§1) Seeds of plant species selected from bermudagrass (Cynodon dactylon), Surinam grass (Brachiaria decumbens), cocklebur (Xanthium strumarium), corn (Zea mays), crabgrass (Digitaria sanguinalis), woolly cupgrass (Eriochloa villosa), giant foxtail (Setaria faberii), goosegrass (Eleusine indica), johnsongrass (Sorghum halepense), kochia (Kochia scoparia), lambsquarters (Chenopodium album), morningglory (Ipomoea hederacea), yellow nutsedge (Cyperus esculentus), pigweed (Amaranthus retroflexus), common ragweed (Ambrosia elatior), soybean (Glycine max) and velvetleaf (Abutilon theophrasti) were planted and treated preemergence with test chemicals formulated in a non-phytotoxic solvent mixture which included a surfactant.
(§2) At the same time, plants selected from these crop and weed species and also winter barley (Hordeum vulgare), blackgrass (Alopecurus myosuroides), canary grass (Phalaris minor), chickweed (Stellaria media), downy brome (Bromus tectorum), green foxtail (Setaria viridis), Italian ryegrass (Lolium multiflorum), wheat (Triticum aestivum), wild oat (Avena fatua) and windgrass (Apera spica-venti) were treated with postemergence applications of some of the test chemicals formulated in the same manner. Plants ranged in height from 2 to 18 cm (1- to 4-leaf stage) for postemergence treatments. Plant species in the flooded paddy test consisted of rice (Oryza saliva), smallflower flatsedge (Cyperus difformis), duck salad (Heteranthera limosa) and barnyardgrass (Echinochloa crus-galli) grown to the 2-leaf stage for testing. Treated plants and controls were maintained in a greenhouse for 12 to 14 days, after which time all species were compared to controls and visually evaluated. Plant response ratings, summarized in Table C, are based on a scale of 0 to 100 where 0 is no effect and 100 is complete control. A dash (-) response means no test result.

[2] = tested on: bermudagrass (Cynodon dactylon); test: Test C postemergence
Excerpt: as §1, §2

[3] = tested on: cocklebur (Xanthium strumarium); test: Test C postemergence
Excerpt: as §1, §2

[4] = tested on: common ragweed (Ambrosia elatior); test: Test C postemergence
Excerpt: as §1, §2

[5] = tested on: corn (Zea mays); test: Test C postemergence
Excerpt: as §1, §2

[6] = tested on: crabgrass (Digitaria sanguinalis); test: Test C postemergence
Excerpt: as §1, §2

[7] = tested on: giant foxtail (Setaria faberii); test: Test C postemergence
Excerpt: as §1, §2

[8] = tested on: johnsongrass (Sorghum halepense); test: Test C postemergence
Excerpt: as §1, §2

[9] = tested on: kochia (Kochia scoparia); test: Test C postemergence
Excerpt: as §1, §2

[10] = tested on: morningglory (Ipomoea hederacea); test: Test C postemergence
Excerpt: as §1, §2

[11] = tested on: pigweed (Amaranthus retroflexus); test: Test C postemergence
Excerpt: as §1, §2

[12] = tested on: woolly cupgrass (Eriochloa villosa); test: Test C postemergence
Excerpt: as §1, §2

[13] = tested on: yellow nutsedge (Cyperus esculentus); test: Test C postemergence
Excerpt: as §1, §2

[14] = tested on: barnyardgrass (Echinochloa crus-galli); test: Test C flooded paddy test; settings: for Barnyardgrass plant response rating: Flooded Paddy, scale 0 to 100, 0 no effect, 100 complete control; for Plant response rating, Barnyardgrass: flooded paddy test, scale 0 to 100 (0 no effect, 100 complete control)
Procedure, shortened: (§3)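 Response on a 0-to-100 scale (no effect to complete control) was assessed by eye versus controls. Plants had reached 2 leaves when treated in flooded paddy conditions. The assessment took place after 12–14 days of greenhouse growth.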

[15] = tested on: duck salad (Heteranthera limosa); test: Test C flooded paddy test; settings: for Ducksalad plant response rating: Flooded Paddy, scale 0 to 100, 0 no effect, 100 complete control; for Plant response rating, Ducksalad: flooded paddy test, scale 0 to 100 (0 no effect, 100 complete control)
Procedure, shortened: as §3

[16] = tested on: rice (Oryza saliva); test: Test C flooded paddy test; settings: for Rice plant response rating: Flooded Paddy, scale 0 to 100, 0 no effect, 100 complete control; for Plant response rating, Rice: flooded paddy test, scale 0 to 100 (0 no effect, 100 complete control)
Procedure, shortened: as §3

[17] = tested on: Sunflower; test: Test C preemergence; settings: scale 0 to 100
[18] = Rate 125 g/ha, scale 0 to 100, 0 no effect, 100 complete control
[19] = Rate 250 g/ha, scale 0 to 100 (0 no effect, 100 complete control)

Compound: CCOc1cc(N2CCC(n3ccc(C(C)(C)C)n3)C2=O)ccc1C (stereo not drawn) [Compound 106]
- Plant response rating, Surinam grass ([1]; Rate 31 g/ha, scale 0 to 100): 0
- Plant response rating, Surinam grass ([1]; Rate 62 g/ha, scale 0 to 100): 0
- Plant response rating, Surinam grass [1, 18]: 0
- Plant response rating, Surinam grass [1, 19]: 0
- Plant response rating, Bermudagrass ([2]; Rate 31 g/ha, scale 0 to 100): 0
- Plant response rating, Bermudagrass ([2]; Rate 62 g/ha, scale 0 to 100): 0
- Plant response rating, Bermudagrass [2, 18]: 0
- Plant response rating, Bermudagrass [2, 19]: 20
- Plant response rating, Cocklebur ([3]; Rate 31 g/ha, scale 0 to 100): 30
- Plant response rating, Cocklebur ([3]; Rate 62 g/ha, scale 0 to 100): 30
- Plant response rating, Cocklebur [3, 18]: 80
- Plant response rating, Cocklebur [3, 19]: 90
- Plant response rating, Ragweed, Common ([4]; Rate 62 g/ha, scale 0 to 100): 0
- Plant response rating, Ragweed, Common [4, 18]: 90
- Plant response rating, Corn ([5]; Rate 31 g/ha, scale 0 to 100): 0
- Plant response rating, Corn ([5]; Rate 62 g/ha, scale 0 to 100): 0
- Plant response rating, Corn [5, 18]: 0
- Plant response rating, Corn [5, 19]: 20
- Plant response rating, Crabgrass ([6]; Rate 31 g/ha, scale 0 to 100): 0
- Plant response rating, Crabgrass ([6]; Rate 62 g/ha, scale 0 to 100): 0
- Plant response rating, Crabgrass [6, 18]: 0
- Plant response rating, Crabgrass [6, 19]: 0
- Plant response rating, Foxtail, Giant ([7]; Rate 31 g/ha, scale 0 to 100): 0
- Plant response rating, Foxtail, Giant ([7]; Rate 62 g/ha, scale 0 to 100): 0
- Plant response rating, Foxtail, Giant [7, 18]: 0
- Plant response rating, Foxtail, Giant [7, 19]: 10
- Plant response rating, Johnsongrass ([8]; Rate 31 g/ha, scale 0 to 100): 0
- Plant response rating, Johnsongrass ([8]; Rate 62 g/ha, scale 0 to 100): 0
- Plant response rating, Johnsongrass [8, 18]: 0
- Plant response rating, Johnsongrass [8, 19]: 0
- Plant response rating, Kochia ([9]; Rate 31 g/ha, scale 0 to 100): 70
- Plant response rating, Kochia ([9]; Rate 62 g/ha, scale 0 to 100): 70
- Plant response rating, Kochia [9, 18]: 90
- Plant response rating, Kochia [9, 19]: 100
- Plant response rating, Morningglory ([10]; Rate 31 g/ha, scale 0 to 100): 90
- Plant response rating, Morningglory ([10]; Rate 62 g/ha, scale 0 to 100): 90
- Plant response rating, Morningglory [10, 18]: 90
- Plant response rating, Morningglory [10, 19]: 100
- Plant response rating, Pigweed ([11]; Rate 31 g/ha, scale 0 to 100): 70
- Plant response rating, Pigweed ([11]; Rate 62 g/ha, scale 0 to 100): 70
- Plant response rating, Pigweed [11, 18]: 80
- Plant response rating, Pigweed [11, 19]: 80
- Plant response rating, Cupgrass, Woolly ([12]; Rate 31 g/ha, scale 0 to 100): 0
- Plant response rating, Cupgrass, Woolly ([12]; Rate 62 g/ha, scale 0 to 100): 10
- Plant response rating, Cupgrass, Woolly [12, 18]: 30
- Plant response rating, Cupgrass, Woolly [12, 19]: 40
- Plant response rating, Nutsedge ([13]; Rate 31 g/ha, scale 0 to 100): 0
- Plant response rating, Nutsedge ([13]; Rate 62 g/ha, scale 0 to 100): 0
- Plant response rating, Nutsedge [13, 18]: 0
- Plant response rating, Nutsedge [13, 19]: 0
- Barnyardgrass plant response rating ([14]; Rate 250 g/ha): 90
- Barnyardgrass plant response rating ([14]; Rate 500 g/ha): 100
- Plant response rating, Barnyardgrass ([14]; Rate 62 g/ha): 30
- Plant response rating, Barnyardgrass ([14]; Rate 125 g/ha): 50
- Ducksalad plant response rating ([15]; Rate 250 g/ha): 100
- Ducksalad plant response rating ([15]; Rate 500 g/ha): 100
- Plant response rating, Ducksalad ([15]; Rate 62 g/ha): 0
- Plant response rating, Ducksalad ([15]; Rate 125 g/ha): 0
- Rice plant response rating ([16]; Rate 250 g/ha): 60
- Rice plant response rating ([16]; Rate 500 g/ha): 90
- Plant response rating, Rice ([16]; Rate 62 g/ha): 20
- Plant response rating, Rice ([16]; Rate 125 g/ha): 60
- Plant response rating, Sunflower ([17]; Rate 31 g/ha): 70
- Plant response rating, Sunflower ([17]; Rate 62 g/ha): 70

Compound: Cc1ccc(N2CCC(n3ccc(C(C)(C)C)n3)C2=O)cc1OCCCl (stereo not drawn) [Compound 109]
- Plant response rating, Surinam grass ([1]; Rate 31 g/ha, scale 0 to 100): 0
- Plant response rating, Surinam grass ([1]; Rate 62 g/ha, scale 0 to 100): 0
- Plant response rating, Surinam grass [1, 18]: 0
- Plant response rating, Surinam grass [1, 19]: 0
- Plant response rating, Bermudagrass ([2]; Rate 31 g/ha, scale 0 to 100): 0
- Plant response rating, Bermudagrass ([2]; Rate 62 g/ha, scale 0 to 100): 0
- Plant response rating, Bermudagrass [2, 18]: 10
- Plant response rating, Bermudagrass [2, 19]: 20
- Plant response rating, Cocklebur ([3]; Rate 31 g/ha, scale 0 to 100): 0
- Plant response rating, Cocklebur ([3]; Rate 62 g/ha, scale 0 to 100): 40
- Plant response rating, Ragweed, Common ([4]; Rate 31 g/ha, scale 0 to 100): 0
- Plant response rating, Ragweed, Common ([4]; Rate 62 g/ha, scale 0 to 100): 0
- Plant response rating, Corn ([5]; Rate 31 g/ha, scale 0 to 100): 0
- Plant response rating, Corn ([5]; Rate 62 g/ha, scale 0 to 100): 0
- Plant response rating, Corn ([5]; scale 0 to 100): 40
- Plant response rating, Crabgrass ([6]; Rate 31 g/ha, scale 0 to 100): 0
- Plant response rating, Crabgrass ([6]; Rate 62 g/ha, scale 0 to 100): 0
- Plant response rating, Crabgrass [6, 19]: 0
- Plant response rating, Foxtail, Giant ([7]; Rate 31 g/ha, scale 0 to 100): 0
- Plant response rating, Foxtail, Giant ([7]; Rate 62 g/ha, scale 0 to 100): 0
- Plant response rating, Foxtail, Giant [7, 19]: 0
- Plant response rating, Johnsongrass ([8]; Rate 31 g/ha, scale 0 to 100): 0
- Plant response rating, Johnsongrass ([8]; Rate 62 g/ha, scale 0 to 100): 0
- Plant response rating, Johnsongrass [8, 19]: 0
- Plant response rating, Johnsongrass ([8]; rate not given, scale 0 to 100): 0
- Plant response rating, Kochia ([9]; Rate 31 g/ha, scale 0 to 100): 80
- Plant response rating, Kochia ([9]; Rate 62 g/ha, scale 0 to 100): 80
- Plant response rating, Kochia [9, 19]: 90
- Plant response rating, Morningglory ([10]; Rate 31 g/ha, scale 0 to 100): 60
- Plant response rating, Morningglory ([10]; Rate 62 g/ha, scale 0 to 100): 100
- Plant response rating, Pigweed ([11]; Rate 31 g/ha, scale 0 to 100): 70
- Plant response rating, Pigweed ([11]; Rate 62 g/ha, scale 0 to 100): 70
- Plant response rating, Pigweed [11, 19]: 70
- Plant response rating, Cupgrass, Woolly ([12]; Rate 31 g/ha, scale 0 to 100): 0
- Plant response rating, Cupgrass, Woolly ([12]; Rate 62 g/ha, scale 0 to 100): 0
- Plant response rating, Cupgrass, Woolly [12, 19]: 0
- Plant response rating, Nutsedge ([13]; Rate 31 g/ha, scale 0 to 100): 0
- Plant response rating, Nutsedge ([13]; Rate 62 g/ha, scale 0 to 100): 0
- Plant response rating, Nutsedge [13, 19]: 0
- Barnyardgrass plant response rating ([14]; Rate 250 g/ha): 70
- Barnyardgrass plant response rating ([14]; Rate 500 g/ha): 90
- Plant response rating, Barnyardgrass ([14]; Rate 62 g/ha): 0
- Plant response rating, Barnyardgrass ([14]; Rate 125 g/ha): 0
- Ducksalad plant response rating ([15]; Rate 250 g/ha): 70
- Ducksalad plant response rating ([15]; Rate 500 g/ha): 90
- Plant response rating, Ducksalad ([15]; Rate 62 g/ha): 0
- Plant response rating, Ducksalad ([15]; Rate 125 g/ha): 0
- Rice plant response rating ([16]; Rate 250 g/ha): 0
- Rice plant response rating ([16]; Rate 500 g/ha): 20
- Plant response rating, Rice ([16]; Rate 62 g/ha): 0
- Plant response rating, Rice ([16]; Rate 125 g/ha): 0
- Plant response rating, Sunflower ([17]; Rate 31 g/ha): 40
- Plant response rating, Sunflower ([17]; Rate 62 g/ha): 70
